Results on eleven molecules are retold here after patent US8936806B2, “Periostin induces proliferation of cardiomyocytes and promotes cardiac regeneration” (Children's Medical Center Corporation, priority 2007, dated 2015).

The subject of experiment [1] is primary adult rat ventricular cardiomyocytes. As to the kind of experiment: DNA synthesis (BrdU uptake, immunofluorescence) in primary adult rat ventricular cardiomyocytes. The experiment is classed as cell-based. Details: inhibition of periostin-stimulated DNA synthesis by integrin antibodies: dose or concentration left out as unconfirmed. The settings on record: for inhibition of periostin-induced DNA synthesis / cell-cycle reentry by kinase inhibitors / inhibition of neuregulin-induced cell-cycle reentry: PD98059 1 mM; for inhibition of periostin-induced DNA synthesis / cell-cycle reentry by kinase inhibitors: U0126 10 mM, LY294002 10 mM, SH-6 10 mM, Akt1/2 inhibitor 1 mM [sic]; for inhibition of neuregulin-induced cell-cycle reentry: U0126 10 mM as printed. An excerpt: Primary neonatal rat ventricular cardiomyocytes were isolated using the Neomyts kit (Cellutron, Highland Park, N.J.), seeded at a density of 10^5 cells/cm^2 onto gelatin-coated cover slips, stimulated for 3 days, and labeled with BrdU for the terminal 2 days. Primary adult ventricular cardiomyocytes were isolated from male (300 gm) Wistar rats (Charles River Laboratories) and maintained as described (Engel, F. B. et al. p38 MAP kinase inhibition enables proliferation of adult mammalian cardiomyocytes. Genes Dev 19, 1175-87 (2005)). Adult cardiomyocytes were stimulated daily for 9 days and labeled with 30 μM BrdU for the terminal 3 days. Cardiomyocytes were stimulated with periostin (500 ng/mL) and FGF (100 ng/mL). […] The vehicle used to dissolve factors or chemicals was added to unstimulated samples, which were then processed together with the test samples. DNA-synthesis was analyzed by visualization of BrdU uptake and cytokinesis was determined by detection of the cleavage furrow and the midbody with an antibody against aurora B kinase as described (Engel, F. B. et al. p38 MAP kinase inhibition enables proliferation of adult mammalian cardiomyocytes. Genes Dev 19, 1175-87 (2005)). Signals were visualized with secondary antibodies conjugated to Alexa 488, Alexa 546, Alexa 594, and Alexa 647 (Invitrogen). […] For image acquisition, the value for γ was set at 1 and the lookup table settings were linear. Primary adult rat ventricular cardiomyocytes were grown on gridded cover slips (Electron Microscopy Services, Ft. Washington, Pa.) and imaged in phase contrast at 10× magnification. Cardiomyocytes were transduced with an adenovirus leading to nuclear expression of histone2B-GFP (Shi, Q. & King, R. W. Nature 437, 1038-42 (2005)) under control of the chicken troponin T promoter ([…]. Am J Physiol Cell Physiol 286, […]-64 (2004)). Nuclei were visualized at 10× magnification with a mercury-arc lamp dimmed to 1.5% with a neutral density filter. […] Images of BrdU-positive cardiomyocytes were matched with the corresponding images from before stimulation. For quantification, differentiated cardiomyocytes were defined as striated rod-shaped structures with length/width ratio>1.5.

Experiment [2] has as its system primary neonatal rat ventricular cardiomyocytes. As to the kind of experiment: DNA synthesis, mitosis and cytokinesis in primary neonatal rat ventricular cardiomyocytes. Format: cell-based. To be noted: for inhibition of periostin-stimulated DNA synthesis by integrin blockers: cRGD 10 μM, antibodies 10 μg/mL; for induction of cardiomyocyte DNA synthesis: FIG. 2d, 2e. An excerpt: Primary neonatal rat ventricular cardiomyocytes were isolated using the Neomyts kit (Cellutron, Highland Park, N.J.), seeded at a density of 10^5 cells/cm^2 onto gelatin-coated cover slips, stimulated for 3 days, and labeled with BrdU for the terminal 2 days. Primary adult ventricular cardiomyocytes were isolated from male (300 gm) Wistar rats (Charles River Laboratories) and maintained as described (Engel, F. B. et al. p38 MAP kinase inhibition enables proliferation of adult mammalian cardiomyocytes. Genes Dev 19, 1175-87 (2005)). Adult cardiomyocytes were stimulated daily for 9 days and labeled with 30 μM BrdU for the terminal 3 days. Cardiomyocytes were stimulated with periostin (500 ng/mL) and FGF (100 ng/mL). Inhibiting antibodies were added at a concentration of 10 μg/mL, cRGD at 10 μM, U0126 at 10 μM, PD98059 at 1 μM, LY294002 at 10 μM, and Wortmannin at 0.1 μM 30 min prior to stimulation. The vehicle used to dissolve factors or chemicals was added to unstimulated samples, which were then processed together with the test samples.
DNA-synthesis was analyzed by visualization of BrdU uptake and cytokinesis was determined by detection of the cleavage furrow and the midbody with an antibody against aurora B kinase as described (Engel, F. B. et al. p38 MAP kinase inhibition enables proliferation of adult mammalian cardiomyocytes. Genes Dev 19, 1175-87 (2005)). Signals were visualized with secondary antibodies conjugated to Alexa 488, Alexa 546, Alexa 594, and Alexa 647 (Invitrogen). Nuclei were visualized with 4′,6′-diamidino-2-phenylindole (DAPI, Invitrogen). For image acquisition, the value for γ was set at 1 and the lookup table settings were linear.

Experiment [3] shares this test system. As to the kind of experiment: Cardiomyocyte proliferation by cell count (hemocytometer). The experiment is classed as cell-based. To be noted: for inhibition of periostin-stimulated proliferation by ERK and PI3-kinase inhibitors: U0126 10 μM, PD98059 1 μM, LY294002 10 μM, Wortmannin 0.1 μM; for inhibition of periostin-stimulated proliferation by integrin blockers: cRGD 10 μM, antibodies 10 μg/mL.
Description: To determine cardiomyocyte proliferation, primary neonatal rat ventricular cardiomyocytes were quantified by counting with a hemocytometer after 3 days and 6 days of stimulation. To determine cardiomyocyte survival, primary neonatal rat ventricular cardiomyocytes were pre-treated with 500 ng/mL periostin or buffer for 30 min and then exposed to 0.5 μM doxycycline or 100 ng/mL TNFα for 24 hr and quantified by counting. Corresponding samples were stained with an antibody directed against tropomyosin as a cardiomyocyte marker to control for the percentage of differentiated cardiomyocytes. Apoptotic cardiomyocyte nuclei were determined after 24 hr with the In situ Cell Death Detection Kit (Roche, Indianapolis, Ind.) in combination with staining for troponin I.

Experiment [4] has as its system Adult male Sprague-Dawley rats. As to the kind of experiment: Cardiomyocyte cell cycle activity in vivo after intramyocardial injection. Details: species or system rat; LVFW CM nuclei: unit not given here. The procedure:
Experiments were performed in accordance with institutional guidelines of Massachusetts General Hospital. Injections and analyses were performed in a blinded fashion. Adult male Sprague-Dawley rats (300 gm, Charles River Laboratories) underwent thoracotomy and received intramyocardial injections of 50 μg of recombinant human periostin consisting of the fas1-4 domains, 50 μg of rat fibronectin, or 100 μL of 100 mM sodium acetate as a control (5 rats per group). The survival rate for this procedure was 80%. Injected periostin was confirmed by detection with a polyclonal antibody directed against human periostin (Abcam) and visualized by immunofluorescence microscopy. Intraperitoneal injections of BrdU (70 μmol/kg body weight) with a tissue half life of 2 hr were given every 48 hr, and rats were sacrificed after the third injection. Horizontal cryosections of 14 μm thickness spaced at 1 mm intervals were analyzed by laser scanning immunofluorescence microscopy. BrdU-positive cardiomyocyte nuclei and cytokineses were quantified on 16-20 sections per heart. Fibrosis and cardiomyocyte cross-sectional area were determined on 5 Masson's Trichrome-stained sections at the level of the injection at 40× magnification and quantified using the Metamorph software package (Molecular Devices Corp., Downingtown, Pa.).

[5] abbreviates: U0126 10 μM, PD98059 1 μM, LY294002 10 μM, Wortmannin 0.1 μM.
[6] abbreviates: 1 week after intracardiac injection.

“Also recorded” adds a separate entry of the source. Where two headings read alike, the source gives them in different places.

As for `O.O=C(O)C(F)(F)F.O=c1[nH]c2ccccc2n1C1CCN(Cc2ccc(-c3nc4cc5[nH]cnc5cc4nc3-c3ccccc3)cc2)CC1` [Akt1/2 inhibitor], in experiment [1] (differentiated cardiomyocytes), the “inhibition of periostin-induced DNA synthesis / cell-cycle reentry by kinase inhibitors” value is “reduced”.

`COc1cccc(-c2cc(=O)c3ccccc3o2)c1N` [PD98059]: in experiment [2] (setting [5]), the “inhibition of periostin-stimulated DNA synthesis by ERK and PI3-kinase inhibitors” value is listed as “inhibited only by blocking Akt activation”; the “inhibition of periostin-stimulated cytokinesis by ERK and PI3-kinase inhibitors” value is recorded as “inhibited”. In experiment [1] (differentiated cardiomyocytes), the “inhibition of neuregulin-induced cell-cycle reentry” value is given as “inhibited” and the “inhibition of periostin-induced DNA synthesis / cell-cycle reentry by kinase inhibitors” value was “did not reduce; also recorded: did not block”. In experiment [3], the “inhibition of periostin-stimulated proliferation by ERK and PI3-kinase inhibitors” value is listed as “inhibited”.

`C[S+]([O-])c1ccc(-c2nc(-c3ccncc3)c(-c3ccc(F)cc3)[nH]2)cc1` (stereo not shown) [SB203580]: the “effect on periostin-induced cardiomyocyte DNA synthesis when added” value in experiment [1] (FGF 100 ng/ml, SB203580 5 mM or 10 mM as printed) is reported as “no additional effect”.

For `N#CC(=C(/N)Sc1ccccc1N)/C(C#N)=C(\N)Sc1ccccc1N` [U0126], in experiment [2], the “inhibition of periostin-stimulated DNA synthesis by ERK and PI3-kinase inhibitors” value is “inhibited only by blocking Akt activation”; the “inhibition of periostin-stimulated cytokinesis by ERK and PI3-kinase inhibitors” value was “inhibited”. In addition, in experiment [1] (differentiated cardiomyocytes), the “inhibition of neuregulin-induced cell-cycle reentry” value was “inhibited” and the “inhibition of periostin-induced DNA synthesis / cell-cycle reentry by kinase inhibitors” value was “did not reduce; also recorded: did not block”. The “inhibition of periostin-stimulated proliferation by ERK and PI3-kinase inhibitors” value in experiment [3] is reported as “inhibited”.

For the molecule Cyclic Arg-Gly-Asp [cRGD], the “inhibition of periostin-stimulated DNA synthesis by integrin blockers” value in experiment [2] is “inhibited; also recorded: blocked”. In addition, the “inhibition of periostin-stimulated proliferation by integrin blockers” value in experiment [3] is on record as “blocked”.

On to “Fibronectin: Rat fibronectin from Biomedical Technologies; extracellular matrix component [reference compound]”, for which, in experiment [2], the “induction of cardiomyocyte DNA synthesis” value is reported as “did not induce DNA synthesis”. In experiment [4] (setting [6]), the “LVFW BrdU-positive CM nuclei” value worked out at 0.002 ± 0.0004% and the “LVFW CM nuclei” value is on record as 10.7 ± 0.4 10^$$ per heart. In addition, in experiment [4] (1 week after intracardiac injection, 3 BrdU injections), the “LVFW BrdU-positive CM nuclei” value is given as 273.6 ± 42.8 per heart. Moreover, the LVFW myocardial volume in experiment [4] (1 week after intracardiac injection, 50 μg periostin (fas1-4 domains) or 50 μg rat fibronectin) was 224 ± 6 mm^3. The “cardiomyocyte DNA synthesis in vivo” value in experiment [4] (FIG. 4c) is “did not increase”. Also, the “cardiomyocyte cytokinesis in vivo” value in experiment [4] (FIG. 4d) is given as “did not increase”.

For SH-6, in experiment [1] (differentiated cardiomyocytes), the “inhibition of periostin-induced DNA synthesis / cell-cycle reentry by kinase inhibitors” value was “reduced”.

On to “collagen: type 1 rat collagen, extracellular matrix component known to activate integrins”, for which, in experiment [2], the “induction of cardiomyocyte DNA synthesis” value is “did not induce DNA synthesis”.

For the molecule “integrin αV antibody: integrin αV (RMV-7) blocking antibody, BioLegend”, in experiment [2], the “inhibition of periostin-stimulated DNA synthesis by integrin blockers” value is “inhibited”. The “inhibition of periostin-stimulated DNA synthesis by integrin antibodies” value in experiment [1] (differentiated cardiomyocytes) is “inhibited”. For the same molecule, the “inhibition of periostin-stimulated proliferation by integrin blockers” value in experiment [3] is “inhibited”.

B1: boiled periostin: boiled periostin used in control experiments to rule out a non-protein impurity (protein, UniProt Q15063 22-836, looked up)
Periostin: NNHYDKILAHSRIRGRDQGPNVCALQQILGTKKKYFSTCKNWYKKSICGQKTTVLYECCPGYMRMEGMKGCPAVLPIDHVYGTLGIVGATTTQRYSDASKLREEIEGKGSFTYFAPSNEAWDNLDSDIRRGLESNVNVELLNALHSHMINKRMLTKDLKNGMIIPSMYNNLGLFINHYPNGVVTVNCARIIHGNQIATNGVVHVIDRVLTQIGTSIQDFIEAEDDLSSFRAAAITSDILEALGRDGHFTLFAPTNEAFEKLPRGVLERIMGDKVASEALMKYHILNTLQCSESIMGGAVFETLEGNTIEIGCDGDSITVNGIKMVNKKDIVTNNGVIHLIDQVLIPDSAKQVIELAGKQQTTFTDLVAQLGLASALRPDGEYTLLAPVNNAFSDDTLSMDQRLLKLILQNHILKVKVGLNELYNGQILETIGGKQLRVFVYRTAVCIENSCMEKGSKQGRNGAIHIFREIIKPAEKSLHEKLKQDKRFSTFLSLLEAADLKELLTQPGDWTLFVPTNDAFKGMTSEEKEILIRDKNALQNIILYHLTPGVFIGKGFEPGVTNILKTTQGSKIFLKEVNDTLLVNELKSKESDIMTTNGVIHVVDKLLYPADTPVGNDQLLEILNKLIKYIQIKFVRGSTFKEIPVTVYTTKIITKVVEPKIKVIEGSLQPIIKTEGPTLTKVKIEGEPEFRLIKEGETITEVIHGEPIIKKYTKIIDGVPVEITEKETREERIITGPEIKYTRISTGGGETEETLKKLLQEEVTKVTKFIEGGDGHLFEDEEIKRLLQGDTPVRKLQANKKVQGSRRRLREGRSQ
modifications: heat-denatured
notes: boiled periostin used in control experiments to rule out a non-protein impurity
B1: in experiment [2] (control for non-protein impurity), the “activation of the cardiomyocyte cell cycle” value is “did not activate”.

B2: variant consisting of the 4 fas1 domains: periostin derivative consisting of 4 fas1 domains, purified from bacteria, molecular weight of 75 kDa (protein)
chain: NNHYDKILAHSRIRGRDQGPNVCALQQILGTKKKYFSTCKNWYKKSICGQKTTVLYECCPGYMRMEGMKGCPAVLPIDHVYGTLGIVGATTTQRYSDASKLREEIEGKGSFTYFAPSNEAWDNLDSDIRRGLESNVNVELLNALHSHMINKRMLTKDLKNGMIIPSMYNNLGLFINHYPNGVVTVNCARIIHGNQIATNGVVHVIDRVLTQIGTSIQDFIEAEDDLSSFRAAAITSDILEALGRDGHFTLFAPTNEAFEKLPRGVLERFMGDKVASEALMKYHILNTLQCSESIMGGAVFETLEGNTIEIGCDGDSITVNGIKMVNKKDIVTNNGVIHLIDQVLIPDSAKQVIELAGKQQTTFTDLVAQLGLASALRPDGEYTLLAPVNNAFSDDTLSMVQRLLKLILQNHILKVKVGLNELYNGQILETIGGKQLRVFVYRTAVCIENSCMEKGSKQGRNGAIHIFREIIKPAEKSLHEKLKQDKRFSTFLSLLEAADLKELLTQPGDWTLFVPTNDAFKGMTSEEKEILIRDKNALQNIILYHLTPGVFIGKGFEPGVTNILKTTQGSKIFLKEVNDTLLVNELKSKESDIMTTNGVIHVVDKLLYPADTPVGNDQLLEILNKLIKYIQIKFVRGSTFKEIPVTVY
Consider B2, for which the “induction of cardiomyocyte DNA synthesis” value in experiment [2] is on record as “stimulated DNA synthesis as effectively as FGF”.
